Source: patent US20230295131A1, “INHIBITORS OF RHO-ASSOCIATED COILED-COIL KINASE” (Angion Biomedica Corp., priority 2020, published 2023)
Like-named read-outs stand apart in the source and are kept apart here.

Key:
ROCK2 = target: T1, ROCK2 (Homo sapiens, UniProt O75116); test: ROCK2 kinase binding affinity, DiscoverX KINOMEscan KdELECT; settings: for ROCK2 Selectivity: selectivity for ROCK2 over ROCK1 from Kd
T1 construct: T7 phage fusion (kinase-tagged phage) or DNA tag for qPCR detection
Experimental: (§1) 1. ROCK1 and ROCK2 kinase assays: The ROCK1 and ROCK2 kinase binding affinities of compounds in this disclosure were determined by DiscoverX's KINOMEscan™ KdELECT technology (https://www.discoverx.com/kinomescan-elect-kinase-screening-and-profiling-services): Kinase-tagged T7 phage strains were prepared in an E. coli host derived from the BL21 strain. E. coli were grown to log-phase and infected with T7 phage and incubated with shaking at 32° C. until lysis. The lysates were centrifuged and filtered to remove cell debris. The remaining kinases were produced in HEK-293 cells and subsequently tagged with DNA for qPCR detection. […] The liganded beads were blocked with excess biotin and washed with blocking buffer (SeaBlock (Pierce), 1% BSA, 0.05% Tween 20, 1 mM DTT) to remove unbound ligand and to reduce nonspecific binding. […] Kds were determined using an 11-point 3-fold compound dilution series with three DMSO control points. […] The compounds were then diluted directly into the assays such that the final concentration of DMSO was 0.9%. All reactions performed in polypropylene 384-well plate. Each was a final volume of 0.02 ml. […] The kinase concentration in the eluates was measured by qPCR.

ROCK1 = target: T2, ROCK1 (Homo sapiens, UniProt Q13464); test: ROCK1 kinase binding affinity, DiscoverX KINOMEscan KdELECT; settings: 11-point 3-fold dilution
T2 construct: T7 phage fusion (kinase-tagged phage) or DNA tag for qPCR detection
Experimental: as §1

[1] = KINOMEscan KdELECT, 11-point 3-fold dilution, read-out: Kd (μM) ROCK2

T2 sequence (Q13464 whole entry, the tested form may be a part): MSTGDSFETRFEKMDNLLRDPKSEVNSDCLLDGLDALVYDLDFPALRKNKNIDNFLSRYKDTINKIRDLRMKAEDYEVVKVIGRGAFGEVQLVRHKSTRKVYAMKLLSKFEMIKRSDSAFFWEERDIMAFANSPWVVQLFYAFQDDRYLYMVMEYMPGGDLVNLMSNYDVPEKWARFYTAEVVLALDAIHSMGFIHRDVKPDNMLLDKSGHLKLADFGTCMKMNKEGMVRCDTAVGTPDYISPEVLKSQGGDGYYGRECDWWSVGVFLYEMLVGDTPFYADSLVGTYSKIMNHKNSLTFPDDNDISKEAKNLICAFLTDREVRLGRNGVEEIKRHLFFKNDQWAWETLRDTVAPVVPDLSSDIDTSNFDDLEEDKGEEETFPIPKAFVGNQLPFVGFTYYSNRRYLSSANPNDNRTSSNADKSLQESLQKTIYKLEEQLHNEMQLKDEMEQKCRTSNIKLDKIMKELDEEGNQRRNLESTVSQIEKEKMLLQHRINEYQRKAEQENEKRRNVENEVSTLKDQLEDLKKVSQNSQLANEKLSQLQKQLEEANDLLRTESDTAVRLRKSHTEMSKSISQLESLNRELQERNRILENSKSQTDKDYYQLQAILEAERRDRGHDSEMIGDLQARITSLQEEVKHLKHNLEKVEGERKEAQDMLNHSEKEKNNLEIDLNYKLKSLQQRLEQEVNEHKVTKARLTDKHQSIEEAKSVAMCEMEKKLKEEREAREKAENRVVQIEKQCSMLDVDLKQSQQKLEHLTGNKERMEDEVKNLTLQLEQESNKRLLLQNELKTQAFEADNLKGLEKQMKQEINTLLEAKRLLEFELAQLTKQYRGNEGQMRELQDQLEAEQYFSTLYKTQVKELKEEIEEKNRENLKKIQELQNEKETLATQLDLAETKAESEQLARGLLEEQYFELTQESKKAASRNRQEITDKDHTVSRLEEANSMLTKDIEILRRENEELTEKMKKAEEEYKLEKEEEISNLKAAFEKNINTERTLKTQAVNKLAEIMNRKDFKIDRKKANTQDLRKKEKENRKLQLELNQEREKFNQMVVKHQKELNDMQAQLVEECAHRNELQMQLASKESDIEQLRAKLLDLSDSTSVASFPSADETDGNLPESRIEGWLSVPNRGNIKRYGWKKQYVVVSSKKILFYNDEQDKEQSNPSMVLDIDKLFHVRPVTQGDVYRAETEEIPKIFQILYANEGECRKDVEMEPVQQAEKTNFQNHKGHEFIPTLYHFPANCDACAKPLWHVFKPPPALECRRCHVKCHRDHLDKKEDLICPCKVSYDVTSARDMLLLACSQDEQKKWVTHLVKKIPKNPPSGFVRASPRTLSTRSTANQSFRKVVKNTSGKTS
T1 sequence (O75116 whole entry, the tested form may be a part): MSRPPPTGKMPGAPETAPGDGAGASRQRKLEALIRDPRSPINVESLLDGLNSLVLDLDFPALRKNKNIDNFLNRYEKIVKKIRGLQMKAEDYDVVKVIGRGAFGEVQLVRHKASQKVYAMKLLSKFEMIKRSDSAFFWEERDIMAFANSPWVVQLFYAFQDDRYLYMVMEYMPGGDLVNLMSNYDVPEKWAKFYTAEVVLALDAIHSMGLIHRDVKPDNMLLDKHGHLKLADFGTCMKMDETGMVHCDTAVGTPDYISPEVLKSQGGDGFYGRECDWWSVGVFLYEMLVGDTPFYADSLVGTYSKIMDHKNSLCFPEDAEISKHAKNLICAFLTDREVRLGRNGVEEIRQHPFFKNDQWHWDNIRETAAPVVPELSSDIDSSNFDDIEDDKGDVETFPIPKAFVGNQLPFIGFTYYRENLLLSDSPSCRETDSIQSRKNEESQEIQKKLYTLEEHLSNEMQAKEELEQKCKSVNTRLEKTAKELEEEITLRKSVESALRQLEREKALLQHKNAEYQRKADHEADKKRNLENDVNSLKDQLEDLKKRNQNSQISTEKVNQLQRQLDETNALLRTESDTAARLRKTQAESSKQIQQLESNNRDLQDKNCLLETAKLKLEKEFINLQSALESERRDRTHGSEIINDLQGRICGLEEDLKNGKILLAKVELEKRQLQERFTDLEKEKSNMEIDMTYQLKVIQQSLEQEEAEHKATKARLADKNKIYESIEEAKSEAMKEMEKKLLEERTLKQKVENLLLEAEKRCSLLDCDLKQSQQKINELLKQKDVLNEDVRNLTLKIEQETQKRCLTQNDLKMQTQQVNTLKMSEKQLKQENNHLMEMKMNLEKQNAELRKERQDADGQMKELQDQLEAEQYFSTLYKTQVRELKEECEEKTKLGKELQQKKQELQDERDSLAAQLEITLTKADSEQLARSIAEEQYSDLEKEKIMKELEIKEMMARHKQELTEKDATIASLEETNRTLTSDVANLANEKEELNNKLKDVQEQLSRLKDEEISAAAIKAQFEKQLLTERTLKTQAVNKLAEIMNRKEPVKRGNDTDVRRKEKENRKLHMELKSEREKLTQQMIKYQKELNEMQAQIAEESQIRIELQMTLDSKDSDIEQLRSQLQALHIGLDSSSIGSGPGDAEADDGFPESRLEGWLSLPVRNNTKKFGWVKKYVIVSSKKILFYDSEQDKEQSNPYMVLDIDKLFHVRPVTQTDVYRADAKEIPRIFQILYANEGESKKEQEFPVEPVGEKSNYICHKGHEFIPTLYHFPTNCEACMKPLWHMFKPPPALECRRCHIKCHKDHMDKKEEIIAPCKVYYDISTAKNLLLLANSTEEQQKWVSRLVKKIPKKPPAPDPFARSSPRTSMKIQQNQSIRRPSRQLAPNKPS

Row | SMILES | Kd (ROCK2; [1]) | ROCK2 Selectivity (ROCK2) | Kd (ROCK1) | Kd (ROCK2)
1 | C(#Cc1ccnc(-c2ccnc(NCc3ccco3)n2)n1)c1ccc2[nH]ncc2c1 [Ex. 40, 4-((1H-Indazol-5-yl)ethynyl)-N-(furan-2-ylmethyl)-[2,4′-bipyrimidin]-2′-amine] | 0.01 to 0.099 µM | * (<50-fold selectivity for ROCK2) | 0.1 to 0.99 µM | 
2 | Clc1ccc(CNc2nccc(-c3nccc(C#Cc4ccc5[nH]ncc5c4)n3)n2)nc1 [Ex. 16, 4-((1H-Indazol-5-yl)ethynyl)-N-((5-chloropyridin-2-yl)methyl)-[2,4′-bipyrimidin]-2′-amine] | < 0.01 µM | * (<50-fold selectivity for ROCK2) | 0.1 to 0.99 µM | 
3 | COC(=O)[C@H]1CC[C@H](Nc2nccc(-c3nccc(C#Cc4ccc5[nH]ncc5c4)n3)n2)CC1 [Ex. 86, (1r,4r)-Methyl 4-((4-((1H-indazol-5-yl)ethynyl)-[2,4′-bipyrimidin]-2′-yl)amino)cyclohexanecarboxylate] | < 0.01 µM | *** (151 to 500-fold selectivity for ROCK2) | 0.1 to 0.99 µM | 
4 | Fc1cc(F)c(F)c(CNc2nccc(-c3nccc(C#Cc4ccc5[nH]ncc5c4)n3)n2)c1 [Ex. 37, 4-((1H-Indazol-5-yl)ethynyl)-N-(2,3,5-trifluorobenzyl)-[2,4′-bipyrimidin]-2′-amine] | 0.01 to 0.099 µM | *** (151 to 500-fold selectivity for ROCK2) | 1 to 9.9 µM | 
5 | Fc1cncc(CNc2nccc(-c3nccc(C#Cc4ccc5[nH]ncc5c4)n3)n2)c1 [Ex. 29, 4-((1H-Indazol-5-yl)ethynyl)-N-((5-fluoropyridin-3-yl)methyl)-[2,4′-bipyrimidin]-2′-amine] | 0.1 to 0.99 µM | * (<50-fold selectivity for ROCK2) | 1 to 9.9 µM | 
6 | COCCNc1nccc(-c2nccc(C#Cc3ccc4[nH]ncc4c3)n2)n1 [Ex. 75, 4-((1H-Indazol-5-yl)ethynyl)-N-(2-methoxyethyl)-[2,4′-bipyrimidin]-2′-amine] |  | *** (151 to 500-fold selectivity for ROCK2) | 1 to 9.9 µM | < 0.01 µM
7 | Fc1ncccc1CNc1nccc(-c2nccc(C#Cc3ccc4[nH]ncc4c3)n2)n1 [Ex. 6, 4-((1H-Indazol-5-yl)ethynyl)-N-((2-fluoropyridin-3-yl)methyl)-[2,4′-bipyrimidin]-2′-amine] | < 0.01 µM | * (<50-fold selectivity for ROCK2) | 0.01 to 0.099 µM | 
8 | Fc1cc(F)c(F)c(CNc2nccc(-c3nccc(C#Cc4ccc5[nH]nc(F)c5c4)n3)n2)c1 [Ex. 60, 4-((3-Fluoro-1H-indazol-5-yl)ethynyl)-N-(2,3,5-trifluorobenzyl)-[2,4′-bipyrimidin]-2′-amine] | 1 to 9.9 µM | * (<50-fold selectivity for ROCK2) | 10 to 100 µM | 
9 | Fc1ccnc(CNc2nccc(-c3nccc(C#Cc4ccc5[nH]ncc5c4)n3)n2)c1 [Ex. 10, 4-((1H-Indazol-5-yl)ethynyl)-N-((4-fluoropyridin-2-yl)methyl)-[2,4′-bipyrimidin]-2′-amine] | 0.01 to 0.099 µM | ** (50 to 150-fold selectivity for ROCK2) | 1 to 9.9 µM | 
10 | C[C@@H](O)CNc1nccc(-c2nccc(C#Cc3ccc4[nH]ncc4c3)n2)n1 [Ex. 79, (R)-1-((4-((1H-Indazol-5-yl)ethynyl)-[2,4′-bipyrimidin]-2′-yl)amino)propan-2-ol] |  | ** (50 to 150-fold selectivity for ROCK2) | 1 to 9.9 µM | 0.01 to 0.099 µM
11 | Fc1ccc(CCNc2nccc(-c3nccc(C#Cc4ccc5[nH]ncc5c4)n3)n2)nc1 [Ex. 39, 4-((1H-Indazol-5-yl)ethynyl)-N-(2-(5-fluoropyridin-2-yl)ethyl)-[2,4′-bipyrimidin]-2′-amine] | 0.01 to 0.099 µM | ** (50 to 150-fold selectivity for ROCK2) | 1 to 9.9 µM | 
12 | Cc1n[nH]c2ccc(C#Cc3ccnc(-c4ccnc(NCc5ccc(F)cn5)n4)n3)cc12 [Ex. 71, N-((5-Fluoropyridin-2-yl)methyl)-4-((3-methyl-1H-indazol-5-yl)ethynyl)-[2,4′-bipyrimidin]-2′-amine] | 0.1 to 0.99 µM | * (<50-fold selectivity for ROCK2) | 0.1 to 0.99 µM | 
13 | O[C@H]1CC[C@@H](Nc2nccc(-c3nccc(C#Cc4ccc5[nH]nc(F)c5c4)n3)n2)C1 [Ex. 94, (1S,3R)-3-((4-((3-Fluoro-1H-Indazol-5-yl)ethynyl)-[2,4′-bipyrimidin]-2′-yl)amino)cyclopentanol] | < 0.01 µM | **** (>500-fold selectivity for ROCK2) | 1 to 9.9 µM | 
14 | Fc1cnc(CNc2nccc(-c3nccc(C#Cc4ccc5[nH]ncc5c4)n3)n2)c(F)c1 [Ex. 38, 4-((1H-Indazol-5-yl)ethynyl)-N-((3,5-difluoropyridin-2-yl)methyl)-[2,4′-bipyrimidin]-2′-amine] | < 0.01 µM | ** (50 to 150-fold selectivity for ROCK2) | 0.1 to 0.99 µM | 
15 | FC(F)(F)c1ccc(CNc2nccc(-c3nccc(C#Cc4ccc5[nH]ncc5c4)n3)n2)nc1 [Ex. 48, 4-((1H-Indazol-5-yl)ethynyl)-N-((5-(trifluoromethyl)pyridin-2-yl)methyl)-[2,4′-bipyrimidin]-2′-amine] | < 0.01 µM | ** (50 to 150-fold selectivity for ROCK2) | 0.1 to 0.99 µM | 
16 | O=C(CNc1nccc(-c2nccc(C#Cc3ccc4[nH]ncc4c3)n2)n1)N1CCOCC1 [Ex. 41, 2-((4-((1H-Indazol-5-yl)ethynyl)-[2,4′-bipyrimidin]-2′-yl)amino)-1-morpholinoethanone] | < 0.01 µM | *** (151 to 500-fold selectivity for ROCK2) | 1 to 9.9 µM | 
17 | [2H]C([2H])(Nc1nccc(-c2nccc(C#Cc3ccc4[nH]ncc4c3)n2)n1)c1ccccn1 [Ex. 66, 4-((1H-Indazol-5-yl)ethynyl)-N-(pyridin-2-ylmethyl-d2)-[2,4′-bipyrimidin]-2′-amine] | < 0.01 µM | ** (50 to 150-fold selectivity for ROCK2) | 0.1 to 0.99 µM | 
18 | COc1ccnc(CNc2nccc(-c3nccc(C#Cc4ccc5[nH]ncc5c4)n3)n2)c1 [Ex. 11, 4-((1H-Indazol-5-yl)ethynyl)-N-((4-methoxypyridin-2-yl)methyl)-[2,4′-bipyrimidin]-2′-amine] | 0.01 to 0.099 µM | ** (50 to 150-fold selectivity for ROCK2) | 0.1 to 0.99 µM | 
19 | Fc1n[nH]c2ccc(C#Cc3ccnc(-c4ccnc(NCC5CCCO5)n4)n3)cc12 (stereo not drawn) [Ex. 50, 4-((3-Fluoro-1H-indazol-5-yl)ethynyl)-N-((tetrahydrofuran-2-yl)methyl)-[2,4′-bipyrimidin]-2′-amine] | < 0.01 µM | *** (151 to 500-fold selectivity for ROCK2) | 1 to 9.9 µM | 
20 | CC1(O)CN(C(=O)CNc2nccc(-c3nccc(C#Cc4ccc5[nH]ncc5c4)n3)n2)C1 [Ex. 84, 2-((4-((1H-Indazol-5-yl)ethynyl)-[2,4′-bipyrimidin]-2′-yl)amino)-1-(3-hydroxy-3-methylazetidin-1-yl)ethanone] | 0.01 to 0.099 µM | * (<50-fold selectivity for ROCK2) | 1 to 9.9 µM | 
21 | Fc1ncccc1CNc1nccc(-c2nccc(C#Cc3ccc4[nH]nc(F)c4c3)n2)n1 [Ex. 43, 4-((3-Fluoro-1H-indazol-5-yl)ethynyl)-N-((2-fluoropyridin-3-yl)methyl)-[2,4′-bipyrimidin]-2′-amine] | 0.01 to 0.099 µM | *** (151 to 500-fold selectivity for ROCK2) | 10 to 100 µM | 
22 | C(#Cc1ccnc(-c2ccnc(NCc3cc4ccccc4cn3)n2)n1)c1ccc2[nH]ncc2c1 [Ex. 25, 4-((1H-Indazol-5-yl)ethynyl)-N-(isoquinolin-3-ylmethyl)-[2,4′-bipyrimidin]-2′-amine] | 0.01 to 0.099 µM | * (<50-fold selectivity for ROCK2) | 0.1 to 0.99 µM | 
23 | O=S1(=O)CC[C@@H](Nc2nccc(-c3nccc(C#Cc4ccc5[nH]ncc5c4)n3)n2)C1 [Ex. 88, (R)-3-((4-((1H-Indazol-5-yl)ethynyl)-[2,4′-bipyrimidin]-2′-yl)amino)tetrahydrothiophene 1,1-dioxide] | 0.01 to 0.099 µM | * (<50-fold selectivity for ROCK2) | 0.1 to 0.99 µM | 
24 | O[C@H]1CC[C@@H](Nc2nccc(-c3nccc(C#Cc4ccc5[nH]ncc5c4)n3)n2)C1 [Ex. 82, (1S,3R)-3-((4-((1H-Indazol-5-yl)ethynyl)-[2,4′-bipyrimidin]-2′-yl)amino)cyclopentanol] | < 0.01 µM | **** (>500-fold selectivity for ROCK2) | 0.1 to 0.99 µM | 
25 | Fc1nccc(Cl)c1CNc1nccc(-c2nccc(C#Cc3ccc4[nH]ncc4c3)n2)n1 [Ex. 64, 4-((1H-Indazol-5-yl)ethynyl)-N-((4-chloro-2-fluoropyridin-3-yl)methyl)-[2,4′-bipyrimidin]-2′-amine] | 0.01 to 0.099 µM | * (<50-fold selectivity for ROCK2) | 0.1 to 0.99 µM | 
26 | C[C@H](O)CNc1nccc(-c2nccc(C#Cc3ccc4[nH]ncc4c3)n2)n1 [Ex. 80, (S)-1-((4-((1H-Indazol-5-yl)ethynyl)-[2,4′-bipyrimidin]-2′-yl)amino)propan-2-ol] |  | ** (50 to 150-fold selectivity for ROCK2) | 1 to 9.9 µM | 0.1 to 0.99 µM
